Results on 2 molecules are retold here after paper PMC11555231 (Nature Communications, 2024).

Data set [1] concerns HaLo-GFP-mito HeLa cells. The data set can be described thus: Chloroalkane penetration assay (CAPA). In kind it is in vitro ADME. Particulars: CAPA, chloroalkane-tagged peptide, 4 h in Opti-MEM, 37 °C, chase HaLo-Tag TMR ligand 5 µM 15 min, flow cytometry; mean ± SEM of three independent experiments. How it is done: Following the addition of chloroacetyl-NHS to the N-terminal amino group, Cys(mmt) was selectively deprotected using 1% TFA, 5% triisopropylsilane in DCM (30 min, RT). Peptides were then cyclised on resin using 2% diisopropylethylamine in DMF overnight. Following cyclisation, Lys(ivDde) was deprotected using 2% hydrazine in DMF. The resin was then washed (3 x DCM, 3 x DMF) before on-resin coupling of chloroalkane carboxylic acid was performed on the lysine side chain using Hexafluorophosphate Azabenzotriazole Tetramethyl Uronium / diisopropylethylamine in DMF for 2 h. Global deprotection and purification were then carried out as described above. Chloroalkane carboxylate was synthesised as previously described.
CAPA assays were performed following the protocol published in ref. [51]. In brief, 40,000 HaLo- GFP-mito HeLa cells were seeded in a 96-well plate. Twenty-four hours later, cells were treated with different concentrations of chloroalkane-tagged peptides (100 µM to 200 nM for PADI4_3 and PADI4_3i and 50 µM to 100 nM for PADI4_11 and PADI4_11i) for 4 h in Opti-MEM. Media containing peptides was then removed, and cells were incubated with Opti-MEM (Gibco) for 15 min. After that time, the wash was removed, and cells were chased with HaLo-Tag TMR ligand (5 µM, Promega) in Opti-MEM for 15 min. The ligand was then removed, and cells were incubated with Opti-MEM for 30 min. Cells were then trypsinised, resuspended in phosphate-buffered saline (PBS) with 0.5% FBS and analysed using a benchtop flow cytometer (MACSQuant® VYB Flow cytometer Milteny Biotec). For each well, 10000 GFP positive single cells were analysed (gating workflow shown in Supplementary Fig. 18), and TMR mean fluorescence was normalised against a positive control (cells treated with HaLo-Tag TMR ligand but no peptide) and a negative control (non-treated cells). Analysis was performed using FlowJo (LCC) software and Prism GraphPad (Dotmatics). Data were presented as the average ± standard error of three independent replicates.
A general note: A flow cytometer gives signals particle by particle.

In data set [2] the test system is hPADI4-stable mES cells. The data set can be described thus: High content microscopy of citrullinated histone H3 (H3Cit) in hPADI4-stable mES cells. In kind it is cell-based, mouse. Particulars: mean H3Cit intensity, peptide 1 h, without any other activating stimulus. How it is done: HaLo-GFP-mito HeLa cells were grown in DMEM (Gibco) supplemented with 10% foetal bovine serum (FBS), penicillin/streptomycin (100 µg/ml) and puromycin (1 µg/ml) at 37 °C, 5% CO2. HaLo-GFP-mito HeLa cell line[82] was profiled by short tandem repeat analysis (STR) and tested negative for mycoplasma by the Cell Services Technology Platform at the Francis Crick Institute. E14 –mouse embryonic stem cells (Cambridge Stem Cell Institute, UK) were cultured in plates coated with 1% gelatine in GMEM supplemented with 10% foetal calf serum (FCS) batch-tested for ES cell culture (Gibco), 0.1 mM non-essential amino acids, 2 mM L-glutamine, 1 mM sodium pyruvate, 0.1 mM β-mercaptoethanol and 50 ng/mL leukaemia inhibitory factor (LIF) (ESGRO, Millipore). For PADI4 activation, cells were cultured in GMEM containing 10% knockout serum replacement (KSR, Life Technologies), 1% FCS batch-tested for ES cell culture (Gibco), 0.1 mM non-essential amino acids, L-glutamine, 1 mM sodium pyruvate, 0.1 mM β-mercaptoethanol, 50 ng/mL LIF (ESGRO, Millipore), 1 μM PD0325901 (AxonMedChem) and 3 μM CHIR99021 (AxonMedChem). For the generation of E14 mES stably expressing human PADI4 (hPADI4-stable), human PADI4 cDNA was inserted into ES E14 cells using the piggyBac transposon system. The Gateway system was used to clone human PADI4 into the piggyBac vector using primers PADI4_AttB1_F and PADI4_AttB2_R (Table S4). pPB-CAG-CTRL (empty vector) or pPB-CAG-hPADI4 vectors […] were transfected with the piggyBac transposase (pPBase) expression vector, pCAGPBase […], by lipofection according to the manufacturer’s instructions (Lipofectamine 2000, Invitrogen). E14 cells constitutively expressing the hygromycin resistance gene and human PADI4 were selected and expanded in media containing […] hygromycin.
E14 cells were seeded onto 96-well PerkinElmer cell carrier ultra plates (Phenoplates) coated with 0.1% gelatine, at 25,000 cells per well and grown overnight at 37 °C, 5% CO2. Outer wells were excluded but medium was added to minimise any edge effects. […]

Data set [3] relates to calcium influx into cells. Put plainly: Calcium imaging with Calbryte 520 AM. In kind it is cell-based. Particulars: Calbryte intensity, 25 µM peptide, 60 min. The procedure:
Calbryte™ 520 AM dye (https://www.aatbio.com/products/calbryte-520-am) was used for quantification of calcium influx into cells. Cells were seeded onto 10 mm optical imaging plates at 10^5 cells per dish and allowed to attach overnight. Cells were stained with 10 μM Calbryte dye in normal growth medium for 1 h, 37 °C, 5% CO2, washed once with cell culture medium and imaged using a Nikon Wide-field microscope. A time series was performed, with a 488 laser image taken every second. After 1 min of imaging (baseline readings), PADI4_11 (25 μM), PADI4_11i (25 μM) or calcium ionophore (10 μM, as positive control) were added, and cells were imaged for a further 60 min. Analysis was done using imageJ —region of interest (ROI) were taken for each cell at each time point using ROI manager. Background values (ROI with no cells) were taken at each time point and removed from the same background reading (i.e. ROI at 1 second with cells minus ROI at 1 s background value). An average of at least ten cells was taken for each condition and each average data point was divided by the initial average data point for that cell, to obtain overall response.

In data set [4] the test system is cellular PADI4 in hPADI4-stable mES cell extracts. Put plainly: Cell lysate activity assay, H3Cit2 immunoblot, with or without pre-incubation before calcium. It is filed as biochemical, mouse. The conditions noted are these: inhibitor added 20 mins prior (pre-incubation) or concurrent with calcium. The text has this: Neutrophil samples were boiled in a sodium dodecyl sulphate (SDS) buffer containing dithiothreitol (DTT) and run on a polyacrylamide gel electrophoresis (SDS-PAGE) using Criterion TGX precast gels (Any-KD; Bio-Rad Laboratories). Proteins were then transferred to a PVDF membrane (Bio-Rad Laboratories) via semi-dry transfer. The membrane was blocked with 5% BSA (Fisher Scientific) in Tris-buffered saline with 0.1% Tween-20 (TBS-T). Levels of citrullinated histone H3, total H3 and myeloperoxidase (MPO) were assessed by incubating membranes in either anti-histone H3 citrulline R2 + R8 + R17 (Abcam; ab5103 1:1000), anti-histone H3 (Millipore; 07-690 1:10000) or anti-MPO (DAKO; A0398 1:2500) overnight at 4 °C, respectively. For cell lysate-based assays and pull-down assays, membranes were incubated as above with anti-hPADI4 (Abcam; ab50332; 1:1000 in 5% BSA/TBS-T), anti-Bcr (Cell Signalling #3902S; 1:1000 in 3% milk/TBS-T) and anti-Impdh2 (Cell Signalling #57068S; 1:1000 in 3% milk/TBS-T). Membranes were washed in 0.1% TBS-T and subsequently incubated with goat anti-rabbit HRP or anti-goat (Fisher Scientific) for 1 h, followed by final washes in 0.1% TBS-T. Membranes were imaged with enhanced chemiluminescent substrate (ECL) (Thermo Fisher) on a Bio-Rad imager.
Supplementary Figure 2. PADI4_3 is a potent and selective hPADI4 inhibitor. A. […]

Bridge positions count the residues as written; N and C are the ends. Peptide text beside a SMILES is read from it.

The molecule `CC(C)C[C@H](NC(=O)[C@H](CCC(N)=O)NC(=O)[C@H](CC(C)C)NC(=O)[C@@H](NC(=O)[C@H](CCC(N)=O)NC(=O)[C@H](CCCNC(=N)N)NC(=O)[C@H](Cc1ccc(O)cc1)NC(=O)[C@H](CCCNC(=N)N)NC(=O)[C@@H]1CSCC(=O)N[C@@H](Cc2ccc(O)cc2)C(=O)N[C@@H](CO)C(=O)N[C@@H](CCC(=O)O)C(=O)N1)C(C)C)C(N)=O` [PADI4_11i] ({CH2CO}-YSECRYRQVLQL-NH2; thioether N-4) returned a CP50 in data set [1] of 2.0 ± 0.5 µM. Moreover, the “PADI4 activation in cells (in words)” value in data set [2] was “does not have the same effect”. Moreover, the “intracellular calcium levels (calcium influx)” value in data set [3] is “neither PADI4_11, nor PADI4_11i, were responsible for increased intracellular calcium levels”.

As to `COc1cc(C(=O)N2CC[C@@H](O)[C@@H](N)C2)cc2nc(-c3cc4ccccc4n3CC3CC3)n(C)c12` [GSK484], the “inhibition of histone 3 citrullination (H3Cit) in cell lysates containing active cellular PADI4” value in data set [4] is “required pre-incubation to be active”.
